pIC50: −log10 of the molar value.
System: 616215-338-R-J1-PDC complex spheroid viability
Assay: Anticancer human tumor 616215-338-R-J1-PDC patient-derived colon adenocarcinoma cell line growth inhibition [POLQ]
Conditions: for pIC50: curve of first compound; for viability, T/C: stronger effect = lower value; active means viability on the fitted dose curve at most 10% of control; inactive means the rest
In short: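 Three-cell-type spheroids modelling solid tumor plus stroma served as the readout system; POL inhibitors were tested individually and in combination, concentration ranges set by clinical Cmax where known.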

[1] = second compound 0.0316 µM, first compound 0.0316 µM
[2] = second compound 0.0316 µM, first compound 0.1 µM
[3] = second compound 0.0316 µM, first compound 0.316 µM
[4] = second compound 0.0316 µM, first compound 1 µM
[5] = second compound 0.1 µM, first compound 0.0316 µM
[6] = second compound 0.1 µM, first compound 0.1 µM
[7] = second compound 0.1 µM, first compound 0.316 µM
[8] = second compound 0.1 µM, first compound 1 µM
[9] = second compound 0.316 µM, first compound 0.0316 µM
[10] = second compound 0.316 µM, first compound 0.1 µM
[11] = second compound 0.316 µM, first compound 0.316 µM
[12] = second compound 0.316 µM, first compound 1 µM
[13] = second compound 1 µM, first compound 0.0316 µM
[14] = second compound 1 µM, first compound 0.1 µM
[15] = second compound 1 µM, first compound 0.316 µM
[16] = second compound 1 µM, first compound 1 µM
[17] = second compound 3.16 µM, first compound 0.0316 µM
[18] = second compound 3.16 µM, first compound 0.1 µM
[19] = second compound 3.16 µM, first compound 0.316 µM
[20] = second compound 3.16 µM, first compound 1 µM
[21] = second compound 10 µM, first compound 0.0316 µM
[22] = second compound 10 µM, first compound 0.1 µM
[23] = second compound 10 µM, first compound 0.316 µM
[24] = second compound 10 µM, first compound 1 µM
[25] = second compound 0.0316 µM, first compound 0.00316 µM
[26] = second compound 0.0316 µM, first compound 0.01 µM
[27] = second compound 0.1 µM, first compound 0.00316 µM
[28] = second compound 0.1 µM, first compound 0.01 µM
[29] = second compound 0.316 µM, first compound 0.00316 µM
[30] = second compound 0.316 µM, first compound 0.01 µM
[31] = second compound 1 µM, first compound 0.00316 µM
[32] = second compound 1 µM, first compound 0.01 µM
[33] = second compound 3.16 µM, first compound 0.00316 µM
[34] = second compound 3.16 µM, first compound 0.01 µM
[35] = second compound 10 µM, first compound 0.00316 µM
[36] = second compound 10 µM, first compound 0.01 µM
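Further: spheroids exposed to compounds for one week before readout.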
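Wherever viability, T/C is given: percent viability relative to DMSO vehicle wells taken as 100%.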

COc1cc2cc(C(=O)CCC(=O)O)sc2cc1OC + Cc1cccc(N(C)C(=O)C2C(O)CCN2c2nc(C)cc(C(F)(F)F)c2C#N)c1
< 5.00: pIC50 (second compound 0.0316 µM) | pIC50 (second compound 0.1 µM) | pIC50 (second compound 0.316 µM) | pIC50 (second compound 1 µM) | pIC50 (second compound 3.16 µM) | pIC50 (second compound 10 µM)
inactive: viability, T/C [1] 99.9% | viability, T/C [2] 99.6% | viability, T/C [3] 92% | viability, T/C [4] 104% | viability, T/C (second compound 0.0316 µM, first compound 3.16 µM) 117% | viability, T/C (second compound 0.0316 µM, first compound 10 µM) 95.9% | viability, T/C [5] 100% | viability, T/C [6] 109% | viability, T/C [7] 109% | viability, T/C [8] 108% | viability, T/C (second compound 0.1 µM, first compound 3.16 µM) 116% | viability, T/C (second compound 0.1 µM, first compound 10 µM) 102% | viability, T/C [9] 96% | viability, T/C [10] 103% | viability, T/C [11] 102% | viability, T/C [12] 109% | viability, T/C (second compound 0.316 µM, first compound 3.16 µM) 103% | viability, T/C (second compound 0.316 µM, first compound 10 µM) 101% | viability, T/C [13] 105% | viability, T/C [14] 101% | viability, T/C [15] 95.2% | viability, T/C [16] 107% | viability, T/C (second compound 1 µM, first compound 3.16 µM) 106% | viability, T/C (second compound 1 µM, first compound 10 µM) 92.4% | viability, T/C [17] 110% | viability, T/C [18] 102% | viability, T/C [19] 104% | viability, T/C [20] 102% | viability, T/C (second compound 3.16 µM, first compound 3.16 µM) 112% | viability, T/C (second compound 3.16 µM, first compound 10 µM) 99.3% | viability, T/C [21] 109% | viability, T/C [22] 102% | viability, T/C [23] 99.6% | viability, T/C [24] 98.3% | viability, T/C (second compound 10 µM, first compound 3.16 µM) 119% | viability, T/C (second compound 10 µM, first compound 10 µM) 85.1%

CCc1c2c(nc3ccc(O)cc13)-c1cc3c(c(=O)n1C2)COC(=O)[C@]3(O)CC + Nc1ccc(C#CCN(C(=O)Cc2ncc(C(F)(F)F)cc2C(F)(F)F)c2ccc(F)cc2)nn1
inactive: viability, T/C [25] 82.6% | viability, T/C [26] 51.4% | viability, T/C [1] 28.6% | viability, T/C [2] 23.1% | viability, T/C [3] 15.7% | viability, T/C [4] 9.67% | viability, T/C [27] 85.5% | viability, T/C [28] 55.2% | viability, T/C [5] 33.7% | viability, T/C [6] 32.2% | viability, T/C [7] 15.5% | viability, T/C [8] 9.4% | viability, T/C [29] 72.8% | viability, T/C [30] 71% | viability, T/C [9] 30.3% | viability, T/C [10] 28.1% | viability, T/C [11] 17.3% | viability, T/C [12] 10.2% | viability, T/C [31] 83.8% | viability, T/C [32] 37.8% | viability, T/C [13] 34% | viability, T/C [14] 28.9% | viability, T/C [15] 17% | viability, T/C [16] 10.2% | viability, T/C [33] 77.6% | viability, T/C [34] 39.2% | viability, T/C [17] 29.3% | viability, T/C [18] 28.6% | viability, T/C [19] 11.9% | viability, T/C [20] 10.9% | viability, T/C [35] 59.2% | viability, T/C [36] 47.8% | viability, T/C [21] 28.5% | viability, T/C [22] 22.5% | viability, T/C [23] 16.1% | viability, T/C [24] 12.8%
7.83: pIC50 (second compound 0.1 µM)
7.74: pIC50 (second compound 0.316 µM)
8.06: pIC50 (second compound 1 µM)
8.14: pIC50 (second compound 10 µM)
8.09: pIC50 (second compound 3.16 µM)
7.98: pIC50 (second compound 0.0316 µM)

CC[C@@]1(O)C(=O)OCc2c1cc1n(c2=O)Cc2cc3c(CN(C)C)c(O)ccc3nc2-1 + Nc1ccc(C#CCN(C(=O)Cc2ncc(C(F)(F)F)cc2C(F)(F)F)c2ccc(F)cc2)nn1
7.18: pIC50 (second compound 0.316 µM) | pIC50 (second compound 1 µM)
inactive: viability, T/C (second compound 0.0316 µM, first compound 0.000316 µM) 112% | viability, T/C (second compound 0.0316 µM, first compound 0.001 µM) 105% | viability, T/C [25] 100% | viability, T/C [26] 101% | viability, T/C [1] 89.4% | viability, T/C [2] 32.3% | viability, T/C (second compound 0.1 µM, first compound 0.000316 µM) 103% | viability, T/C (second compound 0.1 µM, first compound 0.001 µM) 103% | viability, T/C [27] 98.1% | viability, T/C [28] 102% | viability, T/C [5] 83.4% | viability, T/C [6] 37.5% | viability, T/C (second compound 0.316 µM, first compound 0.000316 µM) 111% | viability, T/C (second compound 0.316 µM, first compound 0.001 µM) 119% | viability, T/C [29] 98.6% | viability, T/C [30] 99.3% | viability, T/C [9] 79.8% | viability, T/C [10] 33.6% | viability, T/C (second compound 1 µM, first compound 0.000316 µM) 108% | viability, T/C (second compound 1 µM, first compound 0.001 µM) 96.6% | viability, T/C [31] 107% | viability, T/C [32] 104% | viability, T/C [13] 66.1% | viability, T/C [14] 41.1% | viability, T/C (second compound 3.16 µM, first compound 0.000316 µM) 97.9% | viability, T/C (second compound 3.16 µM, first compound 0.001 µM) 108% | viability, T/C [33] 98.2% | viability, T/C [34] 98.3% | viability, T/C [17] 75.3% | viability, T/C [18] 29.1% | viability, T/C (second compound 10 µM, first compound 0.000316 µM) 85.5% | viability, T/C (second compound 10 µM, first compound 0.001 µM) 90.1% | viability, T/C [35] 96.4% | viability, T/C [36] 94.2% | viability, T/C [21] 55.8% | viability, T/C [22] 38%
7.34: pIC50 (second compound 10 µM)
7.14: pIC50 (second compound 0.1 µM)
7.16: pIC50 (second compound 0.0316 µM)
7.23: pIC50 (second compound 3.16 µM)
